In patent US10633407B2, “14-membered ketolides and methods of their preparation and use” (President and Fellows of Harvard College, priority 2014, dated 2020):
Values after ≈ are worked out from the molar mass of the structure shown. Like-named read-outs stand apart in the source and are kept apart here.

Experiments:
[1] = ester bond, chlorobenzene, 1.0 mM, 150.0 °C, 16.0 h
P. aeruginosa ATCC 27853 = experiment: CLSI broth dilution MIC determination; assay type: cell-based; settings: Pseudomonas aeruginosa, ATCC27853; P. aeruginosa ATCC 27853 (MP-3); read-out: MIC
K. pneumoniae SHV-12 = experiment: CLSI broth dilution MIC determination; assay type: cell-based; settings: Klebsiella pneumoniae, SHV12, read-out: MIC
S. pyogenes ATCC 19615 = experiment: CLSI broth dilution MIC determination; assay type: cell-based; settings: Streptococcus pyogenes, ATCC19615, S. pyogenes ATCC 19615 (MP-19); read-out: MIC
E. faecalis ATCC 29212 = experiment: CLSI broth dilution MIC determination; assay type: cell-based; settings: Enterococcus faecalis, ATCC29212, E. faecalis ATCC 29212 (MP-24); read-out: MIC
K. pneumoniae KPC-2 = experiment: CLSI broth dilution MIC determination; assay type: cell-based; settings: Klebsiella pneumoniae, KPC2, read-out: MIC
[2] = system: A. baumannii imipenem-resistant; experiment: CLSI broth dilution MIC determination; assay type: cell-based; settings: Acinetobacter baumannii, read-out: MIC
[3] = system: S. pyogenes Macrolide-resistant; experiment: CLSI broth dilution MIC determination; assay type: cell-based; settings: Streptococcus pyogenes, S. pyogenes Macrolide-resistant (MP-625 UNT-014); read-out: MIC
S. aureus USA600, GISA = experiment: CLSI broth dilution MIC determination; assay type: cell-based; settings: Staphylococcus aureus; S. aureus USA600, GISA (MP-619 UNT-120); read-out: MIC
Summary of the method: (§1)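 Broth dilution MICs determined by CLSI standard procedures across a strain panel that includes multidrug- and macrolide-resistant strains. Resistance genotypes may be constitutive or inducible.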

E. coli NDM-1 = experiment: CLSI broth dilution MIC determination; assay type: cell-based; settings: Escherichia coli, NDM1, read-out: MIC
Summary of the method: as §1

H. influenzae ATCC49247 = experiment: CLSI broth dilution MIC determination; assay type: cell-based; settings: Haemophilus influenzae, read-out: MIC
Summary of the method: as §1

E. coli ATCC 25922 = experiment: CLSI broth dilution MIC determination; assay type: cell-based; settings: Escherichia coli, ATCC25922, E. coli ATCC 25922 (MP-4); read-out: MIC
Summary of the method: as §1

S. aureus MRSA: USA100 = experiment: CLSI broth dilution MIC determination; assay type: cell-based; settings: Staphylococcus aureus; S. aureus MRSA: USA100 (MP-618 UNT-096); read-out: MIC
Summary of the method: as §1

[4] = system: S. pneumoniae mef A genotype (second strain so labelled); experiment: CLSI broth dilution MIC determination; assay type: cell-based; settings: Streptococcus pneumoniae, second strain (MP-627 UNT-039), read-out: MIC
Summary of the method: as §1

S. pneumoniae ATCC 49619 = experiment: CLSI broth dilution MIC determination; assay type: cell-based; settings: Streptococcus pneumoniae, ATCC49619, S. pneumoniae ATCC 49619 (MP-21); read-out: MIC
Summary of the method: as §1

E. coli CTX-M-14 = experiment: CLSI broth dilution MIC determination; assay type: cell-based; settings: Escherichia coli, CTXM14, read-out: MIC
Summary of the method: as §1

[5] = system: S. pneumoniae mef A genotype (first strain so labelled); experiment: CLSI broth dilution MIC determination; assay type: cell-based; settings: Streptococcus pneumoniae, first strain (MP-626 UNT-038)
Summary of the method: as §1

[6] = system: S. pneumoniae erm B + mef A genotype; experiment: CLSI broth dilution MIC determination; assay type: cell-based; settings: Streptococcus pneumoniae
Summary of the method: as §1

[7] = system: S. pneumoniae erm B + tet(M,O) genotype; experiment: CLSI broth dilution MIC determination; assay type: cell-based; settings: Streptococcus pneumoniae
Summary of the method: as §1

S. aureus ATCC 29213 = experiment: CLSI broth dilution MIC determination; assay type: cell-based; settings: Staphylococcus aureus, ATCC29213; S. aureus ATCC 29213 (MP-12); read-out: MIC
Summary of the method: as §1

S. aureus erm A genotype = experiment: CLSI broth dilution MIC determination; assay type: cell-based; settings: Staphylococcus aureus; S. aureus erm A genotype (MP-620 UNT-146); read-out: MIC
Summary of the method: as §1

E. coli TEM-1 = experiment: CLSI broth dilution MIC determination; assay type: cell-based; settings: Escherichia coli, TEM1
Summary of the method: as §1

K. pneumoniae TEM-10 = experiment: CLSI broth dilution MIC determination; assay type: cell-based; settings: Klebsiella pneumoniae, TEM10, read-out: MIC
S. aureus MRSA: USA300 = experiment: CLSI broth dilution MIC determination; assay type: cell-based; settings: Staphylococcus aureus; S. aureus MRSA: USA300 (MP-549, msr(a)); read-out: MIC
Summary of the method: as §1

[8] = system: P. aeruginosa HPA101-1477; experiment: CLSI broth dilution MIC determination; assay type: cell-based; settings: Pseudomonas aeruginosa, HPA1011477, read-out: MIC
[9] = system: E. faecalis Vancomycin-resistant; experiment: CLSI broth dilution MIC determination; assay type: cell-based; settings: Enterococcus faecalis, E. faecalis Vancomycin-resistant (UNT-039); read-out: MIC
K. pneumoniae ATCC 10031 = experiment: CLSI broth dilution MIC determination; assay type: cell-based; settings: Klebsiella pneumoniae, ATCC10031, K. pneumoniae ATCC 10031 (MP-14); read-out: MIC
[10] = system: A. baumannii chromosomal class C; experiment: CLSI broth dilution MIC determination; assay type: cell-based; settings: Acinetobacter baumannii, read-out: MIC
[11] = system: H. influenzae Erythro >4, Azithro 1; experiment: CLSI broth dilution MIC determination; assay type: cell-based; settings: Haemophilus influenzae; read-out: MIC
From the text: MIC data was collected for the novel macrolides that this platform has produced against over 21 unique strains of B. subtilis, E. coli, S. aureus, S. pneumoniae, and H. influenzae, including several multidrug-resistant strains, with a special focus on macrolide resistant mechanisms (vide supra). […] CLSI standard procedures for broth dilution MIC determination were used. […] These genotypes can be constitutive or inducible.

A. baumannii IMP-4 = experiment: CLSI broth dilution MIC determination; assay type: cell-based; settings: Acinetobacter baumannii, IMP4, read-out: MIC
A. baumannii ATCC 19606 = experiment: CLSI broth dilution MIC determination; assay type: cell-based; settings: Acinetobacter baumannii, ATCC19606; A. baumannii ATCC 19606 (MP-15); read-out: MIC

Compound	MIC (P. aeruginosa ATCC 27853)	MIC (K. pneumoniae SHV-12)	MIC (S. pyogenes ATCC 19615)	MIC (E. faecalis ATCC 29212)	MIC (K. pneumoniae KPC-2)	MIC [2]	MIC [3]	MIC (S. aureus USA600, GISA)	MIC (E. coli NDM-1)	MIC (H. influenzae ATCC49247)	MIC (E. coli ATCC 25922)	MIC (S. aureus MRSA: USA100)	MIC [4]	MIC (S. pneumoniae ATCC 49619)	MIC (E. coli CTX-M-14)	MIC [5]	MIC [6]	MIC [7]	MIC (S. aureus ATCC 29213)	MIC (S. aureus erm A genotype)	further results
C=C1C(=O)[C@H](C)C[C@@](C)(OC)[C@H](O[C@@H]2O[C@H](C)C[C@H](N(C)C)[C@H]2OC(=O)OC)[C@@H](C)C(=O)C(C)C(=O)O[C@H](CC)[C@@]2(C)OC(=O)N(CCCCN=[N+]=[N-])[C@H]12 (some centres unmarked)																					ring closure, yield of all isomers ([1]; from C=C(C(=O)[C@H](C)C[C@@](C)(OC)[C@H](O[C@@H]1O[C@H](C)C[C@H](N(C)C)[C@H]1OC(=O)OC)[C@@H](C)C1=C(C)C(=O)OC(C)(C)O1)[C@H]1N(CCCCN=[N+]=[N-])C(=O)O[C@]1(C)[C@H](O)CC): 23%
CC[C@H]1OC(=O)[C@H](C)C(=O)[C@H](C)[C@@H](O[C@@H]2O[C@H](C)C[C@H](N(C)C)[C@H]2OC(=O)OC)[C@](C)(OC)C[C@@H](C)C(=O)[C@H](C)[C@H]2N(CCCCN=[N+]=[N-])C(=O)O[C@]12C																					ring closure, yield of all isomers ([1]; from CC[C@@H](O)[C@@]1(C)OC(=O)N(CCCCN=[N+]=[N-])[C@@H]1[C@@H](C)C(=O)[C@H](C)C[C@@](C)(OC)[C@H](O[C@@H]1O[C@H](C)C[C@H](N(C)C)[C@H]1OC(=O)OC)[C@@H](C)C1=C(C)C(=O)OC(C)(C)O1, none (thermal, dioxinone to acylketene)): 52%
CC[C@H]1OC(=O)[C@@](C)(F)C(=O)[C@H](C)[C@@H](O[C@@H]2OC(C)CC(N(C)C)C2O)[C@](C)(OC)C[C@@H](C)C(=O)C[C@H]2N(CCCCn3cc(-c4cccc(N)c4)nn3)C(=O)O[C@]12C (some centres unmarked) [FSM-21598]	> 32 µg/mL	> 32 µg/mL	≤ 0.0312 µg/mL	≤ 0.0312 µg/mL	> 32 µg/mL	> 32 µg/mL	0.25 µg/mL (≈ 0.301 µM)	> 32 µg/mL	> 32 µg/mL	4 µg/mL (≈ 4.81 µM)	> 32 µg/mL	> 32 µg/mL	0.25 µg/mL (≈ 0.301 µM)	≤ 0.0312 µg/mL	> 32 µg/mL	≤ 0.0312 µg/mL	8 µg/mL (≈ 9.63 µM)	≤ 0.0312 µg/mL	32 µg/mL (≈ 38.5 µM)	> 32 µg/mL	MIC (E. coli TEM-1): > 32 µg/mL; MIC (K. pneumoniae TEM-10): > 32 µg/mL; MIC (S. aureus MRSA: USA300): 32 µg/mL (≈ 38.5 µM); MIC [8]: > 32 µg/mL; MIC [9]: > 32 µg/mL; MIC (K. pneumoniae ATCC 10031): 8 µg/mL (≈ 9.63 µM); MIC [10]: 32 µg/mL (≈ 38.5 µM); MIC [11]: 8 µg/mL (≈ 9.63 µM); MIC (A. baumannii IMP-4): > 32 µg/mL; MIC (A. baumannii ATCC 19606): > 32 µg/mL
C=C1C(=O)[C@H](C)C[C@@](C)(OC)[C@H](O[C@@H]2OC(C)CC(N(C)C)C2O)[C@@H](C)C(=O)[C@@H](C)C(=O)O[C@H](CC)[C@@]2(C)OC(=O)N(CCCCn3cc(-c4cccc(N)c4)nn3)[C@H]12 (some centres unmarked) [FSM-21828]	> 32 µg/mL	> 32 µg/mL	≤ 0.0312 µg/mL	1 µg/mL (≈ 1.21 µM)	> 32 µg/mL	> 32 µg/mL	0.5 µg/mL (≈ 0.606 µM)	> 32 µg/mL	> 32 µg/mL	16 µg/mL (≈ 19.4 µM)	> 32 µg/mL	> 32 µg/mL	0.5 µg/mL (≈ 0.606 µM)	≤ 0.0312 µg/mL	> 32 µg/mL	0.0625 µg/mL (≈ 0.0758 µM)	32 µg/mL (≈ 38.8 µM)	≤ 0.0312 µg/mL	4 µg/mL (≈ 4.85 µM)	> 32 µg/mL	MIC (E. coli TEM-1): > 32 µg/mL; MIC (K. pneumoniae TEM-10): > 32 µg/mL; MIC (S. aureus MRSA: USA300): > 32 µg/mL; MIC [8]: > 32 µg/mL; MIC [9]: > 32 µg/mL; MIC (K. pneumoniae ATCC 10031): 16 µg/mL (≈ 19.4 µM); MIC [10]: > 32 µg/mL; MIC [11]: 16 µg/mL (≈ 19.4 µM); MIC (A. baumannii IMP-4): > 32 µg/mL; MIC (A. baumannii ATCC 19606): > 32 µg/mL
CC[C@H]1OC(=O)[C@@H](C)C(=O)[C@H](C)[C@@H](O[C@@H]2OC(C)CC(N(C)C)C2O)[C@](C)(OC)C[C@@H](C)C(=O)[C@H](C)[C@H]2N(C/C=C/Cn3cc(-c4cccc(N)c4)nn3)C(=O)O[C@]12C (some centres unmarked) [FSM-100432]	> 32 µg/mL	> 32 µg/mL	< 0.0312 µg/mL	0.125 µg/mL (≈ 0.152 µM)	> 32 µg/mL	> 32 µg/mL	0.0625 µg/mL (≈ 0.0758 µM)	> 32 µg/mL	> 32 µg/mL	8 µg/mL (≈ 9.7 µM)	> 32 µg/mL	> 32 µg/mL	0.5 µg/mL (≈ 0.606 µM)	< 0.0312 µg/mL	> 32 µg/mL	0.125 µg/mL (≈ 0.152 µM)	2 µg/mL (≈ 2.42 µM)	< 0.0312 µg/mL	1 µg/mL (≈ 1.21 µM)	> 32 µg/mL	MIC (E. coli TEM-1): > 32 µg/mL; MIC (K. pneumoniae TEM-10): > 32 µg/mL; MIC (S. aureus MRSA: USA300): > 32 µg/mL; MIC [8]: > 32 µg/mL; MIC [9]: > 32 µg/mL; MIC (K. pneumoniae ATCC 10031): 32 µg/mL (≈ 38.8 µM); MIC [10]: > 32 µg/mL; MIC [11]: 8 µg/mL (≈ 9.7 µM); MIC (A. baumannii IMP-4): > 32 µg/mL; MIC (A. baumannii ATCC 19606): > 32 µg/mL
